Data from patent US20230058623A1, “NOVEL HETEROARYL-TRIAZOLE COMPOUNDS AS PESTICIDES” (Bayer Aktiengesellschaft, priority 2019, published 2023).

How the values were obtained:
Format in all cases: in vivo
[1] = tested on: larvae of the banded cucumber beetle (Diabrotica balteata); assay: Diabrotica balteata spray test; conditions: 168 h, after 7 days, wheat seeds, read-out: activity (efficacy: seedlings grown); for pest or weed control at 160 µg/disc, 500 g/ha: application rate 500 g/ha (=160 μg/well); for pest or weed control at 32 µg/disc, 100 g/ha: application rate 100 g/ha (=32 μg/well)
Protocol: Diabrotica balteata—Spray Test
(§1) To produce a suitable preparation of active compound, 1 part by weight of active compound is mixed with the stated amount of solvent, and the concentrate is diluted with water, containing an emulsifier concentration of 1000 ppm, to the desired concentration. Further test concentrations are prepared by dilution with emulsifier containing water.
Soaked wheat seeds (Triticum aestivum) are placed in a multiple well plate filled with agar and some water and are incubated for 1 day to germinate (5 seeds per well). The germinated wheat seeds are sprayed with a test solution containing the desired concentration of the active ingredient. Afterwards each unit is infected with 10-20 larvae of the banded cucumber beetle (Diabrotica balteata).
After 7 days efficacy in % is determined. 100% means all the seedlings have grown up like in the untreated, uninfected control; 0% means none of the seedlings have grown.

[2] = tested on: Rhipicephalus (Boophilus) microplus larvae (strain Parkhurst, resistant against synthetic pyrethroids); assay: Rhipicephalus (Boophilus) microplus in-vitro contact test, larval cattle tick; conditions: after 48 hours, read-out: activity (efficacy: larvae dead or moribund); for pest or weed control at 1 µg/cm2, 100 g/ha: application rate 1 μg/cm^2 (=100 g/ha); for pest or weed control at 5 µg/cm2, 500 g/ha: application rate 5 μg/cm^2 (=500 g/ha)
Protocol: Rhipicephalus (Boophilus) microplus—In-Vitro Contact Tests Larval Cattle Tick (Strain Parkhurst, Resistant Against Synthetic Pyrethroids)
9 mg compound is solved in 1 ml acetone and diluted with acetone to the desired concentration. 250 μL of the test solution is filled in 25 mL glass test tubes and homogeneously distributed on the inner walls by rotation and tilting on a shaking device (2 h at 30 rpm). With a compound concentration of 900 ppm, an inner surface of 44.7 cm^2 and a homogeneous distribution, a dose of 5 μg/cm^2 is achieved.
After the solvent has evaporated, each test tube is filled with 20-50 cattle tick larvae (Rhipicephalus microplus), closed with a perforated lid and incubated in a horizontal position at 85% relative humidity and 27° C. in an incubator. After 48 hours efficacy is determined. The larvae are patted on the ground of the tubes and negative geotactic behavior is recorded.
An efficacy of 100% means all larvae are dead or moribund; 0% means no larvae are dead or moribund.

[3] = tested on: fall armyworm larvae (Spodoptera frugiperda); assay: Spodoptera frugiperda spray test; conditions: 168 h, application rate 100 g/ha, after 7 days, maize leaf sections
Protocol: Spodoptera frugiperda—Spray Test
as §1, with “solvents” for “solvent,”, “and” for “and the concentrate”
Maize (Zea mays) leaf sections are sprayed with a preparation of the active ingredient of the desired concentration. Once dry, the leaf sections are infested with fall armyworm larvae (Spodoptera frugiperda).
After 7 days mortality in % is determined. 100% means all caterpillars have been killed and 0% means none of the caterpillars have been killed.

Structure (SMILES) | pest or weed control at 160 µg/disc, 500 g/ha [1] | pest or weed control at 32 µg/disc, 100 g/ha [1] | pest or weed control at 1 µg/cm2, 100 g/ha [2] | pest or weed control at 5 µg/cm2, 500 g/ha [2] | mortality at 100 g/ha [3]
C[C@H](NC(=O)c1cc(Cl)cc(C(F)(F)F)c1)c1ncnn1-c1ccc(C(=O)N2[C@@H](C)CCC[C@@H]2C)cn1 [Example I-39] | 100% | – | – | – | –
C[C@H](NC(=O)c1cc(C(F)(F)F)cc(C(F)(F)F)c1)c1ncnn1-c1ccc(N2CCOCC2)cn1 [Example I-44, N-[(1S)-1-{1-[5-(morpholin-4-yl)pyridin-2-yl]-1H-1,2,4-triazol-5-yl}ethyl]-3,5-bis(trifluoromethyl)benzamide] | – | 100% | 100% | 100% | 100%
CC(NC(=O)c1cc(F)cc(C#N)c1)c1nc(C(F)F)nn1-c1ccc(C(=O)N2CCOCC2)cn1 (centres unmarked) [Example I-60] | 100% | 100% | – | – | –
C[C@H](NC(=O)c1cc(C(F)(F)F)cc(C(F)(F)F)c1)c1ncnn1-c1ccc(C(=O)NC2CC(C)(C)OC(C)(C)C2)cn1 [Example I-64] | – | 100% | 90% | 80% | –
CC1CCN(C(=O)c2ccc(-n3ncnc3[C@H](C)NC(=O)c3cc(C(F)(F)F)cc(C(F)(F)F)c3)nc2)CC1 [Example I-73] | – | 100% | 100% | 100% | –
Cc1nc([C@H](C)NC(=O)c2cc(C(F)(F)F)cc(C(F)(F)F)c2)n(-c2ccc(C(=O)N3CCC(C)CC3)cn2)n1 [Example I-74] | – | 100% | 90% | 90% | –
CC(NC(=O)c1cc(Br)cc(Br)c1)c1nc(Br)nn1-c1ccc(C(=O)N2CCOCC2)cn1 (centres unmarked) [Example I-85] | – | – | 100% | 100% | –
C[C@@H]1CN(C(=O)c2ccc(-n3nc(C4CC4)nc3[C@H](C)NC(=O)c3cc(Cl)cc(S(=O)(=O)C4CC4)c3)nc2)C[C@H](C)O1 [Example I-91] | – | 100% | – | – | 100%
C[C@H](NC(=O)c1cc(Br)cc(Br)c1)c1ncnn1-c1ccc(N2CCOCC2)cn1 [Example I-103] | – | 100% | 90% | 100% | –
C[C@H](NC(=O)c1cc(Cl)cc(C(F)(F)F)c1)c1ncnn1-c1ccc(S(=O)(=O)N2CCOCC2)cn1 [Example I-123] | – | 80% | 100% | 100% | –
C[C@H](NC(=O)c1cc(OC(F)(F)F)cc(C2CC2)c1)c1ncnn1-c1ccc(S(=O)(=O)N2CCOCC2)cn1 [Example I-125] | 100% | 100% | 100% | 100% | –
C[C@H](NC(=O)c1cc(C(F)(F)F)cc(C(F)(F)F)c1)c1ncnn1-c1ccc(S(=O)(=O)N2CCOCC2)cn1 [Example I-127, N-[(1S)-1-{1-[5-(morpholin-4-ylsulfonyl)pyridin-2-yl]-1H-1,2,4-triazol-5-yl}ethyl]-3,5-bis(trifluoromethyl)benzamide] | – | – | 100% | 100% | –
Cc1nc([C@H](C)NC(=O)c2cc(OC(F)(F)F)cc(C3CC3)c2)n(-c2ncc(C(=O)N3CCOCC3)s2)n1 [Example I-137] | – | – | – | – | 100%
C[C@@H]1CN(C(=O)c2cnc(-n3ncnc3[C@H](C)NC(=O)c3cc(OC(F)(F)F)cc(S(C)(=O)=O)c3)cn2)C[C@H](C)O1 [Example I-142] | – | – | – | – | 100%
C[C@H](NC(=O)c1cc(C(F)(F)F)cc(C(F)(F)F)c1)c1ncnn1-c1cnc(C(=O)N2CCCC2)cn1 [Example I-144] | – | 100% | – | – | 100%
C[C@@H]1CN(C(=O)c2cnc(-n3ncnc3[C@H](C)NC(=O)c3cc(C(F)(F)F)cc(C(F)(F)F)c3)nc2)C[C@H](C)O1 [Example I-146] | – | 100% | – | – | 100%
